Reference: patent US7138361B2, “Herbicidal heterocycles” (E. I. du Pont de Nemours and Company, priority 2000, dated 2006)

What was measured:
Assay type in all cases: in vivo
[1] = system: Surinam grass (Brachiaria decumbens); experiment: Test C postemergence
Text: (§1) Seeds of plant species selected from bermudagrass (Cynodon dactylon), Surinam grass (Brachiaria decumbens), cocklebur (Xanthium strumarium), corn (Zea mays), crabgrass (Digitaria sanguinalis), woolly cupgrass (Eriochloa villosa), giant foxtail (Setaria faberii), goosegrass (Eleusine indica), johnsongrass (Sorghum halepense), kochia (Kochia scoparia), lambsquarters (Chenopodium album), morningglory (Ipomoea hederacea), yellow nutsedge (Cyperus esculentus), pigweed (Amaranthus retroflexus), common ragweed (Ambrosia elatior), soybean (Glycine max) and velvetleaf (Abutilon theophrasti) were planted and treated preemergence with test chemicals formulated in a non-phytotoxic solvent mixture which included a surfactant.
(§2) At the same time, plants selected from these crop and weed species and also winter barley (Hordeum vulgare), blackgrass (Alopecurus myosuroides), canary grass (Phalaris minor), chickweed (Stellaria media), downy brome (Bromus tectorum), green foxtail (Setaria viridis), Italian ryegrass (Lolium multiflorum), wheat (Triticum aestivum), wild oat (Avena fatua) and windgrass (Apera spica-venti) were treated with postemergence applications of some of the test chemicals formulated in the same manner. Plants ranged in height from 2 to 18 cm (1- to 4-leaf stage) for postemergence treatments. Plant species in the flooded paddy test consisted of rice (Oryza saliva), smallflower flatsedge (Cyperus difformis), duck salad (Heteranthera limosa) and barnyardgrass (Echinochloa crus-galli) grown to the 2-leaf stage for testing. Treated plants and controls were maintained in a greenhouse for 12 to 14 days, after which time all species were compared to controls and visually evaluated. Plant response ratings, summarized in Table C, are based on a scale of 0 to 100 where 0 is no effect and 100 is complete control. A dash (-) response means no test result.

[2] = system: bermudagrass (Cynodon dactylon); experiment: Test C postemergence
Text: as §1, §2

[3] = system: chickweed (Stellaria media); experiment: Test C postemergence
Text: as §1, §2

[4] = system: cocklebur (Xanthium strumarium); experiment: Test C postemergence
Text: as §1, §2

[5] = system: common ragweed (Ambrosia elatior); experiment: Test C postemergence
Text: as §1, §2

corn (Zea mays) = experiment: Test C postemergence
Text: as §1, §2

[6] = system: crabgrass (Digitaria sanguinalis); experiment: Test C postemergence
Text: as §1, §2

[7] = system: giant foxtail (Setaria faberii); experiment: Test C postemergence
Text: as §1, §2

[8] = system: goosegrass (Eleusine indica); experiment: Test C postemergence
Text: as §1, §2

[9] = system: johnsongrass (Sorghum halepense); experiment: Test C postemergence
Text: as §1, §2

kochia (Kochia scoparia) = experiment: Test C postemergence
Text: as §1, §2

[10] = system: lambsquarters (Chenopodium album); experiment: Test C postemergence
Text: as §1, §2

[11] = system: pigweed (Amaranthus retroflexus); experiment: Test C postemergence
Text: as §1, §2

soybean (Glycine max) = experiment: Test C postemergence
Text: as §1, §2

[12] = system: velvetleaf (Abutilon theophrasti); experiment: Test C postemergence
Text: as §1, §2

[13] = system: yellow nutsedge (Cyperus esculentus); experiment: Test C postemergence
Text: as §1, §2

[14] = system: common ragweed (Ambrosia elatior); experiment: Test C preemergence
Procedure, shortened: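 Herbicidal effect is a visual 0–100 score (100 = complete control) assigned versus untreated plants, 12 to 14 days after spraying in the greenhouse. Test compounds were applied in a non-phytotoxic, surfactant-containing solvent.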

[15] = Rate 125 g/ha, scale 0 to 100, 0 no effect, 100 complete control
[16] = Rate 250 g/ha, scale 0 to 100 (0 no effect, 100 complete control)
[17] = Rate 500 g/ha, scale 0 to 100 (0 no effect, 100 complete control)

O=C1C(n2ccc(C3CCC3)n2)SCN1c1cccc(OC(F)(F)F)c1 (centres unmarked) [Compound 38]
100: Plant response rating, Ragweed, Common ([14]; Preemergence, Rate 500 g/ha, scale 0 to 100)
20: Plant response rating, Cocklebur [4, 17] | Plant response rating, Ragweed, Common ([14]; preemergence, Rate 125 g/ha, scale 0 to 100, 0 no effect, 100 complete control)
30: Plant response rating, Bermudagrass [2, 16] | Plant response rating, Crabgrass [6, 17] | Plant response rating, Johnsongrass [9, 17] | Plant response rating, Lambsquarters ([10]; Rate 62 g/ha, scale 0 to 100) | Plant response rating, Lambsquarters [10, 15]
70: Plant response rating, Bermudagrass [2, 17] | Plant response rating, Kochia (kochia (Kochia scoparia); [16]) | Plant response rating, Kochia (kochia (Kochia scoparia); [17]) | Plant response rating, Lambsquarters [10, 16] | Plant response rating, Lambsquarters [10, 17]
60: Plant response rating, Kochia (kochia (Kochia scoparia); Rate 62 g/ha, scale 0 to 100) | Plant response rating, Kochia (kochia (Kochia scoparia); [15])
0: Plant response rating, Surinam grass ([1]; Rate 62 g/ha, scale 0 to 100) | Plant response rating, Surinam grass [1, 15] | Plant response rating, Surinam grass [1, 16] | Plant response rating, Surinam grass [1, 17] | Plant response rating, Bermudagrass ([2]; Rate 62 g/ha, scale 0 to 100) | Plant response rating, Bermudagrass [2, 15] | Plant response rating, Chickweed ([3]; Rate 62 g/ha, scale 0 to 100) | Plant response rating, Chickweed [3, 15] | Plant response rating, Chickweed [3, 16] | Plant response rating, Chickweed [3, 17] | Plant response rating, Cocklebur ([4]; Rate 62 g/ha, scale 0 to 100) | Plant response rating, Cocklebur [4, 15] | Plant response rating, Cocklebur [4, 16] | Plant response rating, Ragweed, Common ([5]; Rate 62 g/ha, scale 0 to 100) | Plant response rating, Ragweed, Common [5, 15] | Plant response rating, Corn (corn (Zea mays); Rate 62 g/ha, scale 0 to 100) | Plant response rating, Corn (corn (Zea mays); [15]) | Plant response rating, Corn (corn (Zea mays); [16]) | Plant response rating, Corn (corn (Zea mays); [17]) | Plant response rating, Crabgrass ([6]; Rate 62 g/ha, scale 0 to 100) | Plant response rating, Crabgrass [6, 15] | Plant response rating, Crabgrass [6, 16] | Plant response rating, Foxtail, Giant ([7]; Rate 62 g/ha, scale 0 to 100) | Plant response rating, Foxtail, Giant [7, 15] | Plant response rating, Foxtail, Giant [7, 16] | Plant response rating, Foxtail, Giant [7, 17] | Plant response rating, Goosegrass ([8]; Rate 62 g/ha, scale 0 to 100) | Plant response rating, Goosegrass [8, 15] | Plant response rating, Goosegrass [8, 16] | Plant response rating, Goosegrass [8, 17] | Plant response rating, Johnsongrass ([9]; Rate 62 g/ha, scale 0 to 100) | Plant response rating, Johnsongrass [9, 15] | Plant response rating, Johnsongrass [9, 16] | Plant response rating, Pigweed ([11]; Rate 62 g/ha, scale 0 to 100) | Plant response rating, Pigweed [11, 15] | Plant response rating, Pigweed [11, 16] | Plant response rating, Pigweed [11, 17] | Plant response rating, Soybean (soybean (Glycine max); Rate 62 g/ha, scale 0 to 100) | Plant response rating, Soybean (soybean (Glycine max); [15]) | Plant response rating, Soybean (soybean (Glycine max); [16]) | Plant response rating, Soybean (soybean (Glycine max); [17]) | Plant response rating, Velvetleaf ([12]; Rate 62 g/ha, scale 0 to 100) | Plant response rating, Velvetleaf [12, 15] | Plant response rating, Velvetleaf [12, 16] | Plant response rating, Velvetleaf [12, 17] | Plant response rating, Nutsedge ([13]; Rate 62 g/ha, scale 0 to 100) | Plant response rating, Nutsedge [13, 15] | Plant response rating, Nutsedge [13, 16] | Plant response rating, Nutsedge [13, 17] | Plant response rating, Ragweed, Common ([14]; Rate 62 g/ha, scale 0 to 100, 0 no effect, 100 complete control)
40: Plant response rating, Ragweed, Common [5, 16] | Plant response rating, Ragweed, Common [5, 17] | Plant response rating (0 to 100), Ragweed, Common ([14]; preemergence, Rate 250 g/ha, visual evaluation after 12 to 14 days)
